# Reference: patent US8357529B2, “Methods of in vitro protein synthesis” (The Board of Trustees of the Leland Stanford Junior …, priority 2002, dated 2013)
# Where two headings read alike, the source gives them in different places.
# How the values were obtained:
# Format in all cases: biochemical, Escherichia coli
# [1] = system: protein synthesis in E. coli S30 extract, PANOx system; experiment: Cell-free protein synthesis in the PANOx system (standard reaction mixture)
# Protocol: A standard reaction mixture for a coupled transcription-translation reaction, herein referred to as the PANOx system (Kim and Swartz (2001), supra.) contains the following components: 57 mM HEPES-KOH (pH7.5), 1.2 mM ATP, 0.85 mM each of GTP, UTP and CTP, 1 mM DTT, 200 mM potassium glutamate, 80 mM ammonium acetate, 16 mM magnesium acetate, 34 μg/ml folinic acid, 170.6 μg/ml E. coli tRNA mixture, 13.3 μg/ml plasmid, 100 μg/ml T7 RNA polymerase, 2 mM each of 20 unlabeled amino acids, 11 μM [^14C]leucine, 2% Poly(ethylene glycol) 8000, 33 mM PEP, 0.33 mM nicotinamide adenine dinucleotide, 0.26 mM Coenzyme A, 2.7 mM sodium oxalate and 0.24 volumes of S30 extract. Prokaryotic cell-free protein synthesis is performed using a crude S30 extract derived from Escherichia coli K12 (strain A19 ΔtonA ΔtnaA ΔspeA ΔendA met+), with slight modifications from the protocol of Pratt, J. M. 1984. (Coupled transcription-translation in prokaryotic cell-free systems. In Transciption and translation: a practical approach. Hanes, B. D., and S. J. Higgins. (Eds.). p. 179-209. IRL Press, New York.) T7 RNA polymerase was prepared from E. coli strain BL21 (pAR1219) according to the procedures of Davanloo et al. 1984. (Cloning and expression of the gene for bacteriophage T7 RNA polymerase. Proc Natl Acad Sci USA 81:2035-2039.)
# (§1) Reactions were incubated at 37° C. for 5-6 hours. The amount of synthesized protein is estimated from the measured TCA-insoluble radioactivities using a liquid scintillation counter (Beckman LS3801). (Kim et al. 1996). Soluble protein yields were determined as previously described. (Kim and Swartz 2000).
# [2] = system: CAT expression in E. coli S30 extract cell-free protein synthesis
# Protocol: as §1
# [3] = system: oxidative phosphorylation (electron transport chain); experiment: CAT synthesis in new system with inhibitor of oxidative phosphorylation, oxygen or argon headspace; conditions: 20 μl batch, 37° C., 5 hours
# Protocol: In seeking to understand how this yield was accomplished, inhibitors of oxidative phosphorylation were tested to establish that this process was partially responsible for the protein production capability of this new technology. […] HQNO inhibits the electron transport chain part of oxidative phosphorylation. All cases are 20 μl batch reactions, and were incubated at 37° C. for 5 hours. The head spaces of the batch reactors were filled with either oxygen or argon, an inert gas. […]. Furthermore, protein synthesis should be unaffected upon the addition of HQNO in the cases where argon is present and oxygen is not available.
smiles,measurement,setting,value
"O=[N+]([O-])c1ccc(O)c([N+](=O)[O-])c1 [2,4-dinitrophenol]",protein synthesis yields in the PANOx system with inhibitor of oxidative phosphorylation,[1]; PANOx system,unaffected
"CC(C)(COP(=O)(O)OP(=O)(O)OC[C@H]1O[C@@H](n2cnc3c(N)ncnc32)[C@H](O)[C@@H]1OP(=O)(O)O)[C@@H](O)C(=O)NCCC(=O)NCCS [CoA, Coenzyme A]",effect of removal of the cofactor on relative protein production,"[2]; Cytomim system, CAT, 15 μl, 6 hours",no significant effect
"CCCCCCCc1cc(O)c2ccccc2[n+]1[O-] [HQNO, 2-heptyl-4-hydroxyquinoline-N-oxide]",CAT synthesis after inhibitor addition,[3]; argon headspace,unaffected
same,CAT synthesis after inhibitor addition,"[3]; presence of oxygen, with or without pyruvate",substantially decreases
[N-]=[N+]=[N-] [azide],protein synthesis yields in the PANOx system with inhibitor of oxidative phosphorylation,[1],unaffected
N#CC(C#N)=NNc1cccc(Cl)c1 [carbonyl-cyanide-m-chlorophenylhydrazone],protein synthesis yields in the PANOx system with inhibitor of oxidative phosphorylation,[1]; PANOx system,unaffected
CC(=O)[O-].CC(=O)[O-].[Mg+2] [magnesium acetate],optimal magnesium value in the standard reaction mixture,[1],19.3 mM
N[C@@H](CCC(=O)[O-])C(=O)[O-].[Mg+2] [magnesium glutamate],optimal magnesium value in the standard reaction mixture,"[1]; standard reaction mixture, includes Mg from cell extract",23.3 mM
[Mg+2] [magnesium],optimum magnesium concentration for protein expression,"[2]; new environment, with 33 mM sodium pyruvate, includes Mg from cell extract",approximately 11 mM
O=C(CC(=O)C(F)(F)F)c1cccs1 [thenoyltrifluoroacetone],protein synthesis yields in the PANOx system with inhibitor of oxidative phosphorylation,[1]; PANOx system,unaffected
